Results reported in ChEMBL document CHEMBL3885881, “DrugMatrix”.

Species: Rattus norvegicus
Test: DrugMatrix - Regimen: Daily Repeat
Type: toxicity, organism-based, Sprague-Dawley
Set-up: regimen Daily Repeat, gender Male, age 6-8 weeks
Settings: in vivo, po, route oral GAVAGE, vehicle .5 % CMC; for BASOPHIL / EOSINOPHIL / ERYTHROCYTE COUNT / HEMATOCRIT / HEMOGLOBIN / LEUKOCYTE COUNT / LYMPHOCYTE / MEAN CORPUSCULAR HEMOGLOBIN / MEAN CORPUSCULAR HEMOGLOBIN CONCENTRATION / MEAN CORPUSCULAR VOLUME / MONOCYTE / NEUTROPHIL / PLATELET COUNT: tissue Blood; for ALANINE AMINOTRANSFERASE / ALBUMIN / ALKALINE PHOSPHATASE / ASPARTATE AMINOTRANSFERASE / BLOOD UREA NITROGEN / CHLORIDE / CHOLESTEROL / CREATINE PHOSPHOKINASE / CREATININE / GLUCOSE / PHOSPHORUS / POTASSIUM / SODIUM / TOTAL BILIRUBIN / TOTAL PROTEIN: tissue Plasma
[1] = 0 mg/kg, 72 h, dose level Control, time 3 day
[2] = 0 mg/kg, 120 h, dose level Control, time 5 day
[3] = 45 mg/kg, 72 h, dose level Low, time 3 day
[4] = 45 mg/kg, 120 h, dose level Low, time 5 day

Nc1ccc(C(=O)O)c(O)c1 [AMINOSALICYLIC ACID]
BASOPHIL [1]: 0% | EOSINOPHIL [1]: 0% | ERYTHROCYTE COUNT [1]: 6.34 x10E6/uL | HEMATOCRIT [1]: 37.62% | HEMOGLOBIN [1]: 14.82 G/DL | LEUKOCYTE COUNT [1]: 11.18 x10E3/uL | LYMPHOCYTE [1]: 87.5% | MEAN CORPUSCULAR HEMOGLOBIN [1]: 23.48 pg | MEAN CORPUSCULAR HEMOGLOBIN CONCENTRATION [1]: 39.5 G/DL | MEAN CORPUSCULAR VOLUME [1]: 59.45 fL | MONOCYTE [1]: 1.67% | NEUTROPHIL [1]: 10.83% | PLATELET COUNT [1]: 1074.83 x10E3/uL | ALANINE AMINOTRANSFERASE [1]: 36.5 u/L | ALBUMIN [1]: 3.9 G/DL | ALKALINE PHOSPHATASE [1]: 370.17 u/L | ASPARTATE AMINOTRANSFERASE [1]: 63.17 u/L | BLOOD UREA NITROGEN [1]: 16.83 mg/dL | CHLORIDE [1]: 99.33 MEQ/L | CHOLESTEROL [1]: 64.33 mg/dL | CREATINE PHOSPHOKINASE [1]: 127 u/L | CREATININE [1]: 0.55 mg/dL | GLUCOSE [1]: 173.5 mg/dL | PHOSPHORUS [1]: 10.08 mg/dL | POTASSIUM [1]: 6.23 MEQ/L | SODIUM [1]: 143.5 MEQ/L | TOTAL BILIRUBIN [1]: 0.52 mg/dL | TOTAL PROTEIN [1]: 6.35 G/DL | BASOPHIL [2]: 0% | EOSINOPHIL [2]: 0.17% | ERYTHROCYTE COUNT [2]: 6.12 x10E6/uL | HEMATOCRIT [2]: 37.08% | HEMOGLOBIN [2]: 14.82 G/DL | LEUKOCYTE COUNT [2]: 11.87 x10E3/uL | LYMPHOCYTE [2]: 83.33% | MEAN CORPUSCULAR HEMOGLOBIN [2]: 24.25 pg | MEAN CORPUSCULAR HEMOGLOBIN CONCENTRATION [2]: 39.97 G/DL | MEAN CORPUSCULAR VOLUME [2]: 60.65 fL | MONOCYTE [2]: 1.5% | NEUTROPHIL [2]: 15% | PLATELET COUNT [2]: 1042.83 x10E3/uL | ALANINE AMINOTRANSFERASE [2]: 46 u/L | ALBUMIN [2]: 3.82 G/DL | ALKALINE PHOSPHATASE [2]: 369.5 u/L | ASPARTATE AMINOTRANSFERASE [2]: 65 u/L | BLOOD UREA NITROGEN [2]: 16.33 mg/dL | CHLORIDE [2]: 100.67 MEQ/L | CHOLESTEROL [2]: 57.17 mg/dL | CREATINE PHOSPHOKINASE [2]: 130 u/L | CREATININE [2]: 0.53 mg/dL | GLUCOSE [2]: 163.33 mg/dL | PHOSPHORUS [2]: 9.53 mg/dL | POTASSIUM [2]: 6.27 MEQ/L | SODIUM [2]: 144.83 MEQ/L | TOTAL BILIRUBIN [2]: 0.55 mg/dL | TOTAL PROTEIN [2]: 6.32 G/DL | BASOPHIL [3]: 0% | EOSINOPHIL [3]: 0% | ERYTHROCYTE COUNT [3]: 6.2 x10E6/uL | HEMATOCRIT [3]: 36.9% | HEMOGLOBIN [3]: 14.43 G/DL | LEUKOCYTE COUNT [3]: 13.37 x10E3/uL | LYMPHOCYTE [3]: 88% | MEAN CORPUSCULAR HEMOGLOBIN [3]: 23.3 pg | MEAN CORPUSCULAR HEMOGLOBIN CONCENTRATION [3]: 39.13 G/DL | MEAN CORPUSCULAR VOLUME [3]: 59.6 fL | MONOCYTE [3]: 0.33% | NEUTROPHIL [3]: 11.67% | PLATELET COUNT [3]: 1203.67 x10E3/uL | ALANINE AMINOTRANSFERASE [3]: 39.33 u/L | ALBUMIN [3]: 3.83 G/DL | ALKALINE PHOSPHATASE [3]: 358.33 u/L | ASPARTATE AMINOTRANSFERASE [3]: 67.33 u/L | BLOOD UREA NITROGEN [3]: 15 mg/dL | CHLORIDE [3]: 99.33 MEQ/L | CHOLESTEROL [3]: 71.33 mg/dL | CREATINE PHOSPHOKINASE [3]: 117 u/L | CREATININE [3]: 0.53 mg/dL | GLUCOSE [3]: 180 mg/dL | PHOSPHORUS [3]: 10.37 mg/dL | POTASSIUM [3]: 6.03 MEQ/L | SODIUM [3]: 143 MEQ/L | TOTAL BILIRUBIN [3]: 0.47 mg/dL | TOTAL PROTEIN [3]: 6.27 G/DL | BASOPHIL [4]: 0% | EOSINOPHIL [4]: 0% | ERYTHROCYTE COUNT [4]: 5.82 x10E6/uL | HEMATOCRIT [4]: 35.1% | HEMOGLOBIN [4]: 14.37 G/DL | LEUKOCYTE COUNT [4]: 14.2 x10E3/uL | LYMPHOCYTE [4]: 88% | MEAN CORPUSCULAR HEMOGLOBIN [4]: 24.67 pg | MEAN CORPUSCULAR HEMOGLOBIN CONCENTRATION [4]: 40.97 G/DL | MEAN CORPUSCULAR VOLUME [4]: 60.3 fL | MONOCYTE [4]: 2% | NEUTROPHIL [4]: 10% | PLATELET COUNT [4]: 1018.67 x10E3/uL | ALANINE AMINOTRANSFERASE [4]: 34.33 u/L | ALBUMIN [4]: 3.6 G/DL | ALKALINE PHOSPHATASE [4]: 348.33 u/L | ASPARTATE AMINOTRANSFERASE [4]: 58 u/L | BLOOD UREA NITROGEN [4]: 15 mg/dL | CHLORIDE [4]: 101 MEQ/L | CHOLESTEROL [4]: 62.67 mg/dL | CREATINE PHOSPHOKINASE [4]: 122.67 u/L | CREATININE [4]: 0.47 mg/dL | GLUCOSE [4]: 155.33 mg/dL | PHOSPHORUS [4]: 10 mg/dL | POTASSIUM [4]: 6.3 MEQ/L | SODIUM [4]: 144.67 MEQ/L | TOTAL BILIRUBIN [4]: 0.37 mg/dL | TOTAL PROTEIN [4]: 5.8 G/DL
